Tested on: patients with the intractable AR
Experiment: Interventional non-randomized cohort study of GCV for intractable AR: clinical symptom scores (VAS, ARCT, TNSS)
Format: in vivo, human
Settings: for TNSS after GCV treatment / rhinocnesmus score after GCV treatment / sneezing score after GCV treatment / rhinocleisis score after GCV treatment / rhinorrhea score after GCV treatment / ARCT after GCV treatment / VAS after GCV treatment: 14 days; for ARCT after GCV then routine anti-allergic medicines / TNSS after GCV then routine anti-allergic medicines / VAS after GCV then routine anti-allergic medicines / rhinocleisis score after GCV then routine anti-allergic medicines / rhinocnesmus score after GCV then routine anti-allergic medicines / rhinorrhea score after GCV then routine anti-allergic medicines / sneezing score after GCV then routine anti-allergic medicines: then routine anti-allergic medicines 14 days
Source text: All patients are recruited from outpatient department of otolaryngology, the patients with AR complain of poor efficacy of routine anti-allergic medicines (nasal glucocorticoid sprays, oral antihistamines, nasal antihistamine sprays and oral leukotriene receptor antagonists). The inclusion and exclusion criteria of recruiting are as follows.
The exclusion criteria: (1) patients have viral/bacterial infection symptoms, fevers and/or other systemic manifestations in the past 2 weeks; (2) patients have other nasal diseases, such as nasal polyps or nasal tumors; (3) patients have a history of nasal surgery in the past 6 months; (4) patients are allergic to the GCV; (5) patients are pregnant women and patients are preparing for pregnancy; (6) the patients have severe neutropenia (absolute neutrophil count<0.5×10^9 per liter) or severe thrombocytopenia (platelet count<2.5×10^10 per liter).
An interventional non-randomized cohort study is conducted. Selected patients are treated with the routine anti-allergic medicines for 2 weeks to exclude the illusion of poor efficacy due to non-standard medication (combined use of nasal spray hormones and oral antihistamines to exclude treatment, and the selected patients are switched to with another brand of similar medicines if the selected patients have previously used the above medicines but no effect).
The selected patients are grouped according to responses to the routine anti-allergic medicines. If the routine anti-allergic medicines treatments are effective, the selected patients are classified as a common AR group; if ineffective, the selected patients are defined as intractable AR patients. The intractable AR patients are treated with the GCV for 2 weeks (oral, 500 milligrams per time (mg/time) twice a day for the patients≥14 years old; 250 mg/time twice a day for the patients<14 years old). If the GCV treatments are ineffective, the patients are classified as a GCV ineffective group; if effective, the patients are classified as GCV effective group. After 2 weeks of the GCV treatment, the patients in the GCV effective group, if total nasal symptom score (TNSS)≥4 or visual analogue scale (VAS)≥3 centimeters (cm) after the GCV treatment, […], conversely, the GCV treatment ends. The nasal symptoms are evaluated at each follow-up. In this situation, nasal secretion smears, nasal secretions, nasal scraping epithelial cells and peripheral blood are collected.
The visual analogue scale (VAS): the severity of all comprehensive symptoms is assessed by the VAS, ranging from 0 (no symptoms) to 10 centimeters (most severe and imaginable symptoms). Allergic rhinitis and its impact on asthma (ARIA) 2008 guideline classification: “mild” AR=0-3 centimeters, “moderate” AR=3.1-7 centimeters, “severe” AR=7.1-10 centimeters.
Allergic rhinitis control test (ARCT) is a self-administered questionnaire on AR control verified by Demoly et al. It consists of five questions with a score of 1-5 points for each question scored and a total score of 5-25 points. The intractable AR is defined as patients with ARCT score<20 points after 2 weeks of treatment.
Nasal symptom score: rhinocleisis, rhinocnesmus, sneezing, rhinorrhea are scored separately. No symptoms=0; mild (mild symptoms, easy to tolerate)=1; moderate (obvious symptoms, annoying, but tolerable)=2; severe (symptoms are not tolerable, affecting daily life or sleep)=3. The total nasal symptom score (TNSS) is the sum of all nasal symptom scores, ranging from 0 to 12.

[1] = Case 1, GCV 250 mg/time twice a day, before 1
[2] = Case 1, GCV 250 mg/time twice a day, before 3
[3] = Case 2, GCV 500 mg/time twice a day, before 2
[4] = Case 2, GCV 500 mg/time twice a day, before 7
[5] = Case 2, GCV 14 days, then nasal spray hormone plus oral antihistamines 14 days
[6] = Case 3, GCV 250 mg/time twice a day, before 3
[7] = Case 4, GCV 500 mg/time twice a day, before 1
[8] = Case 5, GCV 500 mg/time twice a day, before 3

## Nc1nc(O)c2ncn(COC(CO)CO)c2n1 [GCV, Ganciclovir]
Case 1 (person one), GCV 250 mg/time twice a day, before 8
  TNSS after GCV treatment: 3 points
[1]
  rhinocnesmus score after GCV treatment: 1 points
  sneezing score after GCV treatment: 0 points
[2]
  rhinocleisis score after GCV treatment: 1 points
  rhinorrhea score after GCV treatment: 1 points
Case 1, GCV 250 mg/time twice a day, before 5
  ARCT after GCV treatment: 21 points
Case 1, GCV 250 mg/time twice a day, before 8
  VAS after GCV treatment: 4.5 cm
Case 1, GCV 14 days
  ARCT after GCV then routine anti-allergic medicines: 24 points
  TNSS after GCV then routine anti-allergic medicines: 2 points
  VAS after GCV then routine anti-allergic medicines: 2.5 cm
  rhinocleisis score after GCV then routine anti-allergic medicines: 1 points
  rhinocnesmus score after GCV then routine anti-allergic medicines: 0 points
  rhinorrhea score after GCV then routine anti-allergic medicines: 1 points
  sneezing score after GCV then routine anti-allergic medicines: 0 points
[3]
  rhinocleisis score after GCV treatment: 2 points
  rhinocnesmus score after GCV treatment: 2 points
  rhinorrhea score after GCV treatment: 0 points
  sneezing score after GCV treatment: 0 points
[4]
  ARCT after GCV treatment: 20 points
  VAS after GCV treatment: 4 cm
Case 2, GCV 500 mg/time twice a day, before 8
  TNSS after GCV treatment: 4 points
[5]
  ARCT after GCV then anti-allergic medicines: 25 points
  TNSS after GCV then anti-allergic medicines: 1 point
  VAS after GCV then anti-allergic medicines: 2 cm
  rhinocleisis score after GCV then anti-allergic medicines: 1 point
  rhinocnesmus score after GCV then anti-allergic medicines: 0 point
  rhinorrhea score after GCV then anti-allergic medicines: 0 point
  sneezing score after GCV then anti-allergic medicines: 0 point
[6]
  rhinocleisis score after GCV treatment: 2 points
  rhinocnesmus score after GCV treatment: 1 points
  rhinorrhea score after GCV treatment: 3 points
  sneezing score after GCV treatment: 3 points
Case 3, GCV 250 mg/time twice a day, before 5
  ARCT after GCV treatment: 22 points
Case 3, GCV 250 mg/time twice a day, before 10
  VAS after GCV treatment: 5 cm
Case 3, GCV 250 mg/time twice a day, before 12
  TNSS after GCV treatment: 9 points
Case 3, GCV 14 days
  ARCT after GCV then routine anti-allergic medicines: 25 points
  TNSS after GCV then routine anti-allergic medicines: 3 points
  VAS after GCV then routine anti-allergic medicines: 2.5 cm
  rhinocleisis score after GCV then routine anti-allergic medicines: 1 point
  rhinocnesmus score after GCV then routine anti-allergic medicines: 0 point
  rhinorrhea score after GCV then routine anti-allergic medicines: 1 point
  sneezing score after GCV then routine anti-allergic medicines: 1 point
Case 4, GCV 500 mg/time twice a day
  ARCT after GCV treatment: 24 points
[7]
  rhinocnesmus score after GCV treatment: 0 point
  sneezing score after GCV treatment: 0 point
Case 4, GCV 500 mg/time twice a day, before 2
  rhinorrhea score after GCV treatment: 1 point
Case 4, GCV 500 mg/time twice a day, before 3
  rhinocleisis score after GCV treatment: 1 point
Case 4, GCV 500 mg/time twice a day, before 7
  TNSS after GCV treatment: 2 points
Case 4, GCV 500 mg/time twice a day, before 9
  VAS after GCV treatment: 1.5 cm
Case 4, GCV 14 days, then 7 days of the nasal spray hormone
  nasal symptoms after GCV then nasal spray hormone: disappear completely
Case 5, GCV 500 mg/time twice a day, before 0
  rhinocnesmus score after GCV treatment: 0 point
Case 5, GCV 500 mg/time twice a day, before 1
  rhinorrhea score after GCV treatment: 1 point
[8]
  rhinocleisis score after GCV treatment: 1 point
  sneezing score after GCV treatment: 0 point
Case 5, GCV 500 mg/time twice a day, before 5
  ARCT after GCV treatment: 24 points
Case 5, GCV 500 mg/time twice a day, before 7
  TNSS after GCV treatment: 2 points
Case 5, GCV 500 mg/time twice a day, before 10
  VAS after GCV treatment: 2.2 cm
GCV effective group
  nasal symptom (rhinocleisis, rhinocnesmus, sneezing, rhinorrhea) scores before and after GCV treatment (FIG. 2): significantly improved
GCV effective group n=26, after 2 weeks GCV
  ARCT, VAS and TNSS scores during diagnosis and treatment (FIGS. 1A-1C): significantly ameliorates the nasal symptoms
n=15 with TNSS≥4 or VAS≥3 cm after 2 weeks GCV, then anti-allergic medicines 2 weeks
  nasal symptoms after re-treatment with previously ineffective anti-allergic medicines following GCV: could further reduce the nasal symptoms
Oral GCV 2 weeks, 14/40, ineffective = ARCT<20
  intractable AR patients ineffective after the GCV treatment: 35%
